What was measured:
PcaV = PcaV synthetic promoter/operator GFP reporter in E. coli; type: cell-based, Streptomyces coelicolor; settings: E. coli harboring PcaV plasmid, grown in supplemented medium
Text: As an example, Streptomyces coelicolor harbors an aTF, PcaV (SC06704), a member of the MarR family, which relieves repression on its operator in the presence of 3,4-dihydroxybenzoic acid. When the intergenic region between PcaV and Pcal was cloned into position to promote the expression of GFP on a plasmid which can be maintained in E. coli, no GFP expression was observed even though no known protein was present which could bind the operator site. […] Upon the introduction of the PcaV protein under a constitutive promoter, the GFP expression was suppressed. […] See FIG. 1, FIG. 2, FIG. 3, FIG. 21.

FapR = FapR GFP reporter in E coli; type: cell-based, Staphylococcus aureus; settings: increasing concentrations
Text: (§1) Staphylococcus aureus FapR responds to intracellular levels of malonyl-CoA. Cerulenin is an inhibitor of fatty acid biosynthesis and is known to increase the intracellular pool of malonyl-CoA at subtoxic concentrations.

E coli = test: Toxicity in FapR chassis dose response (OD600 and fluorescence channels); type: cell-based; settings: highest concentration
Text: as §1

TtgR = biological target: T1, TtgR (Pseudomonas putida, UniProt Q88N29); test: TtgR-GFP sensor-reporter system in E. coli, response to naringenin; type: cell-based; settings: TtgR-binding synthetic operator promoter
T1 construct: Wild type of TtgR; expressed in transfected cells; host or cells: E. coli
Text: TtgR regulates the TtgABC efflux pump in Pseudomonas putida, and responds to antibiotics such as chloramphenicol (Teran, et al) as well as the flavanones such as naringenin (Raman, et al).
See FIG. 8, FIG. 9, FIG. 10, FIG. 11, FIG. 13.

FadR = type: cell-based, Vibrio cholerae; settings: E coli; increased levels

T1 sequence (Q88N29 whole entry): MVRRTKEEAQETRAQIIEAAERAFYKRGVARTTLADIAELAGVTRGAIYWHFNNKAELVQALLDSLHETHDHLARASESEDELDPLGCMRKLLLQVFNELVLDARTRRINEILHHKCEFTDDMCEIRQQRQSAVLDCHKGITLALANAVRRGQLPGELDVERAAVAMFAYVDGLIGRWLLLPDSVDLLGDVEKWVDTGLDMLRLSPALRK

O=C(O)c1ccc(O)c(O)c1 [3,4-dihydroxybenzoic acid]
GFP expression (PcaV): expression of GFP was observed

C/C=C/C/C=C/CCC(=O)[C@H]1O[C@H]1C(N)=O [cerulenin]
GFP reporter expression (FapR): increased expression of a GFP reporter
toxicity (E coli): toxicity at highest concentration

O=C1C[C@@H](c2ccc(O)cc2)Oc2cc(O)cc(O)c21 [naringenin]
GFP expression (TtgR): drive GFP expression

CCCCCCCC/C=C\CCCCCCCC(=O)O [oleic acid]
GFP reporter expression (FadR): driving expression of a GFP reporter

Reference: patent publication US11774442B2, “Molecule sensor systems” (priority 2016, dated 2023)
